Reference: patent publication US20070167465A1, “Fungicidal mixtures” (BASF AKTIENGESELLSCHAFT, priority 2004, published 2007)

Test system: Pyrenophora teres
Experiment: activity against net blotch of barley caused by Pyrenophora teres, 1-day-protective application
Assay type: in vivo, Pyrenophora [syn. Drechslera] teres on barley seedlings
Conditions: individual active compound, barley seedlings, assessed after 6 days
Method: The active compounds, separately or jointly, were prepared as a stock solution comprising 0.25% by weight of active compound in acetone or DMSO. 1% by weight of the emulsifier Uniperol® EL (wetting agent having emulsifying and dispersant action based on ethoxylated alkylphenols) was added to this solution, and the mixture was diluted with water to the desired concentration.
Use example—activity against net blotch of barley caused by Pyrenophora teres, 1-day-protective application.
Leaves of pot-grown barley seedlings were sprayed to run-off point with an aqueous suspension having the concentration of active compound stated below. 24 hours after the spray coating had dried on, the test plants were inoculated with an aqueous spore suspension of Pyrenophora [syn. Drechslera] teres, the causative agent of net blotch. The test plants were subsequently placed in a greenhouse at temperatures of between 20 and 24° C. and at 95 to 100% relative atmospheric humidity. After 6 days, the extent of development of the disease was determined visually in % infection of the total leaf area.
The visually determined percentages of infected leaf areas were converted into efficacies in % of the untreated control:
The efficacy (E) is calculated as follows using Abbot's formula: E=(1−α/β).100 α corresponds to the fungal infection of the treated plants in % and β corresponds to the fungal infection of the untreated (control) plants in %
An efficacy of 0 means that the infection level of the treated plants corresponds to that of the untreated control plants; an efficacy of 100 means that the treated plants were not infected.
The expected efficacies of mixtures of active compounds were determined using Colby's formula (Colby, S. R. “Calculating synergistic and antagonistic responses of herbicide combinations”, Weeds, 15, 20-22, 1967) and compared with the observed efficacies.
Colby's formula: E=x+y−x·y/100 • E expected efficacy, expressed in % of the untreated control, when using the mixture of the active compounds A and B at the concentrations a and b • x efficacy, expressed in % of the untreated control, when using the active compound A at the concentration a
y efficacy, expressed in % of the untreated control, when using the active compound B at the concentration b

Row | Compound | Efficacy in % of the untreated control (1.25 ppm in the spray liquor) | Efficacy in % of the untreated control (0.25 ppm in the spray liquor) | Efficacy in % of the untreated control (6.25 ppm in the spray liquor)
1 | CC1CCN(c2c(-c3c(F)cc(F)cc3F)c(Cl)nc3ncnn23)CC1 [I, 5-chloro-7-(4-methylpiperidin-1-yl)-6-(2,4,6-trifluorophenyl)-[1,2,4]triazolo[1,5-a]pyrimidine] | 56 % of the untreated control | – | –
2 | CC(C)NC(=O)N1CC(=O)N(c2cc(Cl)cc(Cl)c2)C1=O [II (iprodione), N-isopropyl-3-(3,5-dichlorophenyl)-2,4-dioxoimidazolidine-1-carboxamide] | 0 % of the untreated control | 0 % of the untreated control | 0 % of the untreated control
